Data on two compounds can be found in US5658781A, “Insecticidally effective peptides” (priority 1995, dated 1997).

Series [1] relates to maggot neuromuscular junction. The series is described as follows: Neuromuscular junction EPSP recording in house fly larvae. In kind it is cell-based, Musca domestica.
The subject of another series is maggot peripheral nerves. The series is described as follows: Extracellular recording from house fly larval peripheral nerves. It is filed as cell-based, Musca domestica.
Series [2] relates to cabbage looper (Trichoplusia ni). Briefly: Toxin injection PD50 in CL larvae. It is filed as in vivo.
The test system of series [3] is beet armyworm (Spodoptera exigua). Briefly: Toxin injection PD50 in BAW larvae. It is filed as in vivo.
The next series has as its system mice. It is filed as in vivo. The following applies: i.p., approximate dose 0.9 mg/kg. As to the method: Whole venom, 5 μl, obtained from D. canities as described herein was fatal to mice by intraperitoneal injection (i.p.) in three separate tests. Treated mice were initially indistinguishable from saline controls. About 10 to 15 minutes after injection, treated mice became moderately hyperactive, displaying a characteristic hopping gait; this was followed by a short period of uncoordination, labored breathing and convulsions. Death followed within 2 minutes of the initial onset of symptoms.
Residue 9.2 was injected into the intracerebral ventricles in four mice (approx. 28 gm) at a dose of approximately 30 μg per animal (approximately 1 mg/kg).
To characterize the vertebrate toxicity of this venom, pooled reversed-phase fractions of whole venom were tested in mice (FIG. 1). Fraction 2 comprised the components with tobacco budworm (TBW) activity.

Series [4] relates to tobacco budworm (Heliothis virescens). Briefly: Injection paralysis assay in tobacco budworm larvae. In kind it is in vivo.

Consider `NC1=N[C@H](O)[C@H]2[C@H]3O[C@]4(O)O[C@@H]([C@@H](O)[C@@]2(N1)[C@@H]4O)[C@]3(O)CO` [TTX, tetrodotoxin], for which, in series [1], the “effect on sensitivity to subsequent treatment with 100 nM DK 9.2” value was “rendered the preparation insensitive” and the “effect on the EPSP” value is “rapidly blocked”. Moreover, in the series on maggot peripheral nerves, the “effect on DK 9.2-induced increase in nerve discharge” value is given as “rapidly blocked”.

As to “DK 11: Insecticidal peptide isolated from Diguetia canities venom, SEQ ID NO:3, about 6700 or 6740 daltons (AKDGDVKGPAGCMKYKSGDCRGKTCCDQQ)”, the PD50 in series [2] is recorded as 0.86 nmol/gm; in series [3] it was under 1.5 nmol/gm; in series [4] (TBW larvae, injection, probit analysis), 0.71 nmol/gm. The “effects in mice within 24 hours” value in the series on mice was “no effects seen”. Moreover, the “insects exhibiting paralysis after 24 hours” value in series [4] (TBW, 5.0 WVE/g, 24 hours) came out at 80%. The “insects exhibiting paralysis after 48 hours” value in series [4] (TBW, 5.0 WVE/g, 48 hours) stood at 60%.
